# Assay results reported in patent publication US20170216213A1, “DIRECTLY COMPRESSIBLE POLYVINYL ALCOHOLS” (Merck Patent GmbH, priority 2014, published 2017).
# Assay: Ascorbic acid in-vitro release test (USP Apparatus 2, paddle)
# Format: physicochemical
# Settings: from PVA/MCC matrix tablets (samples 1 and 2)
# Method: 9. Ascorbic acid release test: The ascorbic acid-containing compressed tablets (from the compressions with a pressing force of 20 kN) are measured in a SOTAX (Allschwil, Switzerland) in-vitro release apparatus using the “Apparatus 2 (Paddle Apparatus)” described in USP 36 under <711> and under the conditions described therein for “Extended-release dosage forms” (USP=United States Pharmacopoeia). The sampling is carried out automatically via a hose pump system with subsequent measurement in an 8453 spectrometer (Agilent Technologies, USA) and a flow cell.
# The averaged values are obtained from the release tests of in each case 6 ascorbic acid-containing tablets pressed with a pressing force of 20 kN.
# Measurement Apparatuses and Measurement Parameters:
# 1. —Sotax AT7s release apparatus fitted with Apparatus 2 (Paddle Apparatus in accordance with USP 36) • Temperature: 37° C.+/−0.5° C. • Paddle speed: 100 rpm • Volume of release medium per measurement vessel: 900 ml • Tablet weight: 500 mg • Total run time of the measurement: 720 min. (with sampling after 15, 30, 45, 60, 120, 180, 240, 300, 360, 420, 480, 540, 600, 660, 720 min.)
# 2. —Hose pump for sampling: Sotax CY 7-50 (SOTAX, Switzerland)
# 3. —8453 spectrometer (Agilent Technologies, USA) • Measurement at 244 nm in a 2 mm flow measurement cell • Evaluation via Excel • Medium preparation: Dosa Prep X8 (DOSATEC GmbH, Germany) […]
smiles,measurement,value
"O=C1O[C@H]([C@@H](O)CO)C(O)=C1O [ascorbic acid, L(+)-ascorbic acid]",Duration of retarded in-vitro release,over several hours
